Series [1] can be described thus: Randomized, double-blind 12-week study: safety, tolerability and recurrence of muscle-related side effects (MRSE). The series is classed as in vivo, human (patients). The procedure:
(§1) A randomized, double-blind, double-dummy, parallel-group, multicenter study evaluating the efficacy and tolerability of fluvastatin XL 80 mg/day, and ezetimibe 10 mg/day, alone or in combination, is conducted according to the ethical principles of the Guidelines for Good Clinical Practice and the Declaration of Helsinki of the World Medical Association. Patients are recruited in 27 centers in Germany, Greece, Norway, Russia, Turkey and the United States. The protocol is approved by local ethics committees or institutional review boards. Written, informed consent before randomization are provided by all patients.
After a minimum 5-week lead-in, drug wash-out and diet stabilization period, patients who fulfilled the study criteria are randomized in a 1:1:1 ratio to 12-week treatment with fluvastatin XL 80 mg plus matched placebo for ezetimibe 10 mg, or ezetimibe 10 mg plus matched placebo for fluvastatin XL 80 mg, or fluvastatin XL 80 mg plus ezetimibe 10 mg. For blinding purposes tablets for fluvastatin XL/placebo and capsules for ezetimibe/placebo are used. Treatment assignment is unbiased and concealed from patients and investigator staff, by a randomization list produced by the sponsor using a validated system that automates the random assignment of treatment groups. Treatment remains fully blinded from the time of randomization until database lock. Trial medication is taken with water at bedtime. Compliance is assessed by study personnel using pill counts at each visit. Patients are to continue a low saturated fat and cholesterol-restricted diet and exercise regimen.
The study enrolls men and women 18 years of age or older with dyslipidemia who have previously experienced documented MRSEs that have led to cessation of statin treatment, or patients currently receiving statin treatment (other than fluvastatin) whose quality of life is affected by MRSEs and require switching to an alternative treatment. MRSEs include myalgia (defined as muscle ache, pain or discomfort), muscle cramps, lack of strength during effort, heaviness and/or weakness without creatine kinase elevation >3 times upper limit of normal.
Safety evaluations include regular monitoring of all adverse events, urine, hematology, blood chemistry, as well as physical examination and assessment of vital signs. MRSEs are assessed before and during the study using a standard questionnaire as detailed in Table 1.
Objectives of this study are to assess LDL-C reduction from baseline of (1) fluvastatin XL 80 mg in combination with ezetimibe 10 mg compared with ezetimibe 10 mg monotherapy and (2) fluvastatin XL 80 mg compared with ezetimibe 10 mg. Objectives of the study are also include (1) to assess the tolerability of fluvastatin XL 80 mg and ezetimibe 10 mg alone or in combination as determined by the rate of recurrence of MRSEs and the rate of recurrence of MRSEs leading to study drug discontinuation; (2) to assess the effect of fluvastatin XL 80 mg alone or in combination with ezetimibe 10 mg on total cholesterol, triglycerides, HDL-C, LDL-C:HDL-C ratio, Apo-AI and Apo-B compared with ezetimibe 10 mg monotherapy; (3) to determine the number of patients in each treatment group who reached target LDL-C levels according to the current National Cholesterol Education Program guidelines, (4) to assess the effect of fluvastatin XL 80 mg and ezetimibe 10 mg alone or in combination on hs-CRP; and (5) to assess the overall safety and tolerability profile of fluvastatin XL 80 mg and ezetimibe 10 mg alone or in combination.
With a sample size of 70 patients per treatment group, the study has 90% power to detect a difference of 9.65% between the population means, using a two-sided comparison with α equal to 0.05 and assuming a standard deviation of 17.5% in both groups. Efficacy and tolerability analyses are performed using the intent-to-treat population, defined as all patients receiving at least 1 dose of study drug. […]

In series [2] the test system is LDL-C. Put plainly: Randomized, double-blind 12-week study: lipid-lowering efficacy in patients with prior statin MRSEs. The series is classed as in vivo, human (patients). How it is done:
as §1
After a minimum 5-week lead-in, drug wash-out and diet stabilization period, patients who fulfilled the study criteria are randomized in a 1:1:1 ratio to 12-week treatment with fluvastatin XL 80 mg plus matched placebo for ezetimibe 10 mg, or ezetimibe 10 mg plus matched placebo for fluvastatin XL 80 mg, or fluvastatin XL 80 mg plus ezetimibe 10 mg. […] Compliance is assessed by study personnel using pill counts at each visit. […]
Initial screening includes medical history, physical examination, clinical chemistry, hematology and urinalysis. […] AI and Apo-B are measured at weeks 0, 4, 8 and 12. High sensitivity C-reactive protein (hs-CRP) is measured at weeks 0 and 12. […] LDL-C is calculated using the Friedewald formula when triglyceride levels <400 mg/dL. […]

Turning to `O=C1[C@H](CC[C@H](O)c2ccc(F)cc2)[C@@H](c2ccc(O)cc2)N1c1ccc(F)cc1` [Ezetimibe], in series [1] (12-week treatment), the “MRSE recurrence leading to discontinuation, incidence rate” value is reported as 8%; the “MRSE recurrence leading to discontinuation, number of patients” value came out at 5 patients; the “any MRSE recurrence, incidence rate” value was 24%; the “any MRSE recurrence, number of patients” value amounted to 16 patients. The “patients prematurely discontinued from the study due to adverse events” value in series [1] (12-week treatment) is given as 8 patients. Besides, the “patients reporting an adverse event” value in series [1] (12-week treatment, safety population) stood at 39 patients. In addition, in series [1] (in vivo), the “median time to first event, MRSE recurrence leading to discontinuation” value is listed as 2.57 weeks and the “median time to first event, any MRSE recurrence” value came out at 3.07 weeks. For the same compound, the “LDL-C lowering from baseline” value in series [2] (baseline to week 12 or study end (LOCF), fluvastatin XL 80 mg/day, ezetimibe 10 mg/day) came to 15.6%. Also, in series [2] (subgroup of 91 patients in the high-risk category), the “patients achieving a LDL-C level of <100 mg/dL at study end” value is recorded as 4%.

(Values after patent US20090275551A1, “Fluvastatin for the treatment of patients with a history of muscle related side effects with other statins” (priority 2007, published 2009).)
